According to patent US6407081B1, “Method for inhibiting cytokine production by cells” (Previsan AG, priority 1997, dated 2002):

Tests used:
IFN-γ [1] = experiment: Interferon-γ production by purified CD4 T lymphocytes stimulated by PMA + anti-CD28 (Example 4); format: cell-based, human; details: for IFN-γ in % relative to control: purified CD4 T lymphocytes, PMA + anti-CD28, mean of 2 donors
Procedure: (§1) Purified CD4 T lymphocytes (90% purity) stimulated by PMA (phorbol myristate acetate)+anti-CD28 antibodies from healthy donors are treated with various concentrations of ADA.
(§2) In Examples 3 and 4, the results are stated as a percentage taking the medium without ADA as 100%. The concentrations corresponding to 100% are respectively 90,000 pg/ml for IL-2, 1100 pg/ml for IL-5, 1900 pg/ml for IFN-γ and 2870 pg/ml for TNF-α. The results are the mean of independent ELISA assays.

IL-4 = experiment: In vivo serum IL-4 release after anti-CD3 145-2C11 mAb (Example 5); design: species or system BALB/C mice; details: ADA 100 mg/kg single injection one day before 145-2C11 mAb; sera at 2, 4, 8, 24 h; FIG. 2
Procedure: A single intraparenteral injection of azodicarbon-amide (ADA) at a dose of 100 mg/kg bodyweight or corresponding carrier is made into BALB/C mice (Harlan, Zeist, Netherlands) one day before intraparenteral inoculation of 25 μg of hamster 145-2C11 mAb, an anti-mouse CD3 mAb which brings about massive in vivo activation of polyclonal T cells, resulting in systemic cytokine release. Sera are collected 2, 4, 8 and 24 hours after the anti-CD3 treatment and the cytokine (IL-2, IL-4) levels are determined by an ELISA test (Genzyme).
FIGS. 1 and 2 are graphs showing, on the y-axis, the quantities of IL-2 and IL-4 in the serum as a mean of 5 test animals. […] The empty bars show the results obtained with the carrier and the shaded bars show those obtained with prior ADA treatment.

IFN-γ [2] = experiment: Interferon-γ production by purified T lymphocytes (Example 3); format: cell-based, human; details: mean of 3 donors
Procedure: (§3) PBMC from three healthy donors are purified by density gradient […] (LymphoPrep). The T lymphocytes are obtained from 15.10^6 PBMC incubated for 20 to 30 minutes in a waterbath at 37° C. with 0.8 ml of a mixture of LymphoKwik® (One Lambda, Inc., CA, USA). This latter substance is a mixture of complement and specific antibody for antigen units of the cell membrane which lyses the unwanted cells (B lymphocytes, monocytes, etc.). The cells are centrifuged and then washed twice.
(§4) These cultures are treated with various concentrations of ADA.
as §2

IL-2 = IL-2 production by purified T lymphocytes (Example 3); format: cell-based, human; details: mean of 2 donors
Procedure: as §3, §4, §2

IL-5 [3] = experiment: IL-5 production by purified T lymphocytes (Example 3); format: cell-based, human; details: mean of 2 donors
Procedure: as §3, §4, §2

[4] = system: Peripheral mononuclear blood cells (PMBC); experiment: Cytotoxic effects on the PBMC cultures of Examples 1 and 2; format: cell-based, human; details: at the ADA concentrations reducing cytokine production in Examples 1 and 2
IFN-γ [5] = experiment: IFN-γ production by splenocytes of ovalbumin-sensitised rats treated orally (Example 8); format: in vivo, Brown-Norway rats; details: ADA orally 500 and 1000 mg/kg twice daily, FIG. 4
Procedure: Brown-Norway rats are actively sensitised with 5% ovalbumin in 0.9% NaCl. 24 hours later, bronchial reactivity to metacholine is measured on the anaesthetised rats. Immediately measurement of bronchial reactivity is complete, splenocytes are taken from these rats and cultured to determine IFN-γ production by these cells.
ADA is administered 24 hours before the beginning of the ovalbumin sensitisation phase and daily throughout the duration of the test, except for the days of the measurements. The ADA is administered orally in suspension in 1% methylcellulose at a twice daily dosage of 500 mg/kg and 1000 mg/kg bodyweight.
The quantities of IFN-γ are plotted on the y-axis in pg/mg of protein. On the x-axis, the empty bars A to F correspond to the following experiments: […]

TNF-α = TNF-α production by purified CD4 T lymphocytes stimulated by PMA + anti-CD28 (Example 4); format: cell-based, human; details: for TNF-α in % relative to control: purified CD4 T lymphocytes, PMA + anti-CD28, 5 donors
Procedure: as §1, §2

IL-5 [6] = experiment: IL-5 production by purified CD4 T lymphocytes stimulated by PMA + anti-CD28 (Example 4); format: cell-based, human; details: for IL-5 in % relative to control: purified CD4 T lymphocytes, PMA + anti-CD28, 1 donor
Procedure: as §1, §2

interferon-γ = experiment: Interferon-γ production by PHA-activated PBMC (Example 2); format: cell-based, human; details: for Interferon-γ content as a percentage of the control: PHA-activated PBMC, 72 h
Procedure: Peripheral mononuclear blood cells (PMBC) from five healthy human donors are isolated in the conventional manner from 50 ml of their blood and then purified by density gradient centrifugation (Lymphoprep). The cells (5.10^6 cells/ml) are activated by 0.3 μg/ml of phytohaemagglutinin (PHA) and cultured for 72 hours at 37° C. in the presence of various concentrations of ADA (20, 10, 5, 1, 0.2 and 0.04 μg/ml). The culture medium consists of RPMI 1640 complemented with 10% foetal calf serum and glutamine and contains mercaptoethanol. The ADA solutions are prepared in dimethyl sulfoxide (DMSO), the working concentration of DMSO during the experiments being 0.1%. Said experiments are performed on 96 well plates (200 μl/well) and, once the plates have been centrifuged at 1500 revolutions per minute for 10 minutes, the supernatants are harvested and the IL-5 content thereof analysed by an ELISA immunoenzymatic assay.
Starting from the same cell cultures as those used in Example 1, the presence of interferon-γ was investigated after treatment with the stated concentrations of ADA.

[7] = 20 μg/ml of ADA, donors of Examples 3 and 4

SMILES: NC(=O)N=NC(N)=O [ADA, azodicarbon-amide]
- production of interferon-γ (IFN-γ [1]; [7]): inhibited
- IFN-γ in % relative to control (IFN-γ [1]; ADA 1 μg/ml): 73 % relative to control
- IFN-γ in % relative to control (IFN-γ [1]; ADA 5 μg/ml): 36 % relative to control
- IFN-γ in % relative to control (IFN-γ [1]; ADA 10 μg/ml): 15 % relative to control
- IFN-γ in % relative to control (IFN-γ [1]; ADA 20 μg/ml): 12 % relative to control
- release of IL-4 into serum (IL-4): significant reduction
- IFN-γ in % relative to control (IFN-γ [2]; ADA 1 μg/ml): 82 % relative to control
- IFN-γ in % relative to control (IFN-γ [2]; ADA 5 μg/ml): 34 % relative to control
- IFN-γ in % relative to control (IFN-γ [2]; ADA 10 μg/ml): 14 % relative to control
- IFN-γ in % relative to control (IFN-γ [2]; ADA 20 μg/ml): 4 % relative to control
- IL-2 in % relative to control (IL-2; ADA 1 μg/ml): 68 % relative to control
- IL-2 in % relative to control (IL-2; ADA 5 μg/ml): 27 % relative to control
- IL-2 in % relative to control (IL-2; ADA 10 μg/ml): 9 % relative to control
- IL-2 in % relative to control (IL-2; ADA 20 μg/ml): 3 % relative to control
- IL-5 in % relative to control (IL-5 [3]; ADA 1 μg/ml): 67 % relative to control
- IL-5 in % relative to control (IL-5 [3]; ADA 5 μg/ml): 60 % relative to control
- IL-5 in % relative to control (IL-5 [3]; ADA 10 μg/ml): 40 % relative to control
- IL-5 in % relative to control (IL-5 [3]; ADA 20 μg/ml): 16 % relative to control
- cytotoxic effects [4]: no cytotoxic effects
- production of INF-γ by splenocytes (IFN-γ [5]): inhibitory effect
- production of TNF-α (TNF-α; 20 μg/ml of ADA, donors of Example 4): inhibited
- TNF-α in % relative to control (TNF-α; ADA 1 μg/ml): 90 % relative to control
- TNF-α in % relative to control (TNF-α; ADA 5 μg/ml): 48 % relative to control
- TNF-α in % relative to control (TNF-α; ADA 10 μg/ml): 32 % relative to control
- TNF-α in % relative to control (TNF-α; ADA 20 μg/ml): 14 % relative to control
- production of IL-5 (IL-5 [6]; [7]): inhibited
- IL-5 in % relative to control (IL-5 [6]; ADA 1 μg/ml): 69 % relative to control
- IL-5 in % relative to control (IL-5 [6]; ADA 5 μg/ml): 45 % relative to control
- IL-5 in % relative to control (IL-5 [6]; ADA 10 μg/ml): 43 % relative to control
- IL-5 in % relative to control (IL-5 [6]; ADA 20 μg/ml): 38 % relative to control
- Interferon-γ content as a percentage of the control (interferon-γ; ADA 0.04 μg/ml, Donor 1): 62 % of control
- Interferon-γ content as a percentage of the control (interferon-γ; ADA 0.04 μg/ml, Donor 2): 53 % of control
- Interferon-γ content as a percentage of the control (interferon-γ; ADA 0.04 μg/ml, Donor 3): 99 % of control
- Interferon-γ content as a percentage of the control (interferon-γ; ADA 0.04 μg/ml, Donor 4): 82 % of control
- Interferon-γ content as a percentage of the control (interferon-γ; ADA 0.04 μg/ml, Donor 5): 38 % of control
- Interferon-γ content as a percentage of the control (interferon-γ; ADA 0.04 μg/ml, Mean of donors): 67 % of control
- Interferon-γ content as a percentage of the control (interferon-γ; ADA 0.2 μg/ml, Donor 1): 112 % of control
- Interferon-γ content as a percentage of the control (interferon-γ; ADA 0.2 μg/ml, Donor 2): 111 % of control
- Interferon-γ content as a percentage of the control (interferon-γ; ADA 0.2 μg/ml, Donor 3): 70 % of control
- Interferon-γ content as a percentage of the control (interferon-γ; ADA 0.2 μg/ml, Mean of donors (donors 4, 5 not given)): 98 % of control
- Interferon-γ content as a percentage of the control (interferon-γ; ADA 1 μg/ml, Donor 1): 87 % of control
- Interferon-γ content as a percentage of the control (interferon-γ; ADA 1 μg/ml, Donor 2): 98 % of control
- Interferon-γ content as a percentage of the control (interferon-γ; ADA 1 μg/ml, Donor 3): 49 % of control
- Interferon-γ content as a percentage of the control (interferon-γ; ADA 1 μg/ml, Mean of donors (donors 4, 5 not given)): 78 % of control
- Interferon-γ content as a percentage of the control (interferon-γ; ADA 5 μg/ml, Donor 1): 68 % of control
- Interferon-γ content as a percentage of the control (interferon-γ; ADA 5 μg/ml, Donor 2): 128 % of control
- Interferon-γ content as a percentage of the control (interferon-γ; ADA 5 μg/ml, Donor 3): 62 % of control
- Interferon-γ content as a percentage of the control (interferon-γ; ADA 5 μg/ml, Donor 4): 57 % of control
- Interferon-γ content as a percentage of the control (interferon-γ; ADA 5 μg/ml, Donor 5): 25 % of control
- Interferon-γ content as a percentage of the control (interferon-γ; ADA 5 μg/ml, Mean of donors): 68 % of control
- Interferon-γ content as a percentage of the control (interferon-γ; ADA 10 μg/ml, Donor 1): 23 % of control
- Interferon-γ content as a percentage of the control (interferon-γ; ADA 10 μg/ml, Donor 2): 169 % of control
- Interferon-γ content as a percentage of the control (interferon-γ; ADA 10 μg/ml, Donor 3): 43 % of control
- Interferon-γ content as a percentage of the control (interferon-γ; ADA 10 μg/ml, Mean of donors (donors 4, 5 not given)): 78 % of control
- Interferon-γ content as a percentage of the control (interferon-γ; ADA 20 μg/ml, Donor 1): 21 % of control
- Interferon-γ content as a percentage of the control (interferon-γ; ADA 20 μg/ml, Donor 2): 86 % of control
- Interferon-γ content as a percentage of the control (interferon-γ; ADA 20 μg/ml, Donor 3): 40 % of control
- Interferon-γ content as a percentage of the control (interferon-γ; ADA 20 μg/ml, Donor 4): 25 % of control
- Interferon-γ content as a percentage of the control (interferon-γ; ADA 20 μg/ml, Donor 5): 16 % of control
- Interferon-γ content as a percentage of the control (interferon-γ; ADA 20 μg/ml, Mean of donors): 38 % of control
- inhibition of interferon-γ production, number of donors (interferon-γ; PBMC of 5 donors, ADA 0.04-20 μg/ml): inhibition is observed in 4 out of 5 donors
